Assay results published in patent US20120115852A1, “HETEROCYCLIC COMPOUNDS AS AUTOTAXIN INHIBITORS” (Merck Patent Gesellschaft Mit Beschrankter Haftung, priority 2009, published 2012).
pIC50: −log10 of the molar value.

Biological target: T1, recombinant autotaxin (Homo sapiens, UniProt Q13822)
T1 construct: made in house; host or cells: Hi5 insect cells (baculovirus)
Test: Autotaxin test (enzyme test), Amplex Red fluorescence with LPC substrate
Assay type: biochemical
Details: autotaxin inhibition (enzyme test); for remaining activity at 10 µM: 10 μM compound, read-out: % Control at 10 μM
Procedure, shortened: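 Purified recombinant autotaxin (baculovirus Hi5-expressed) pre-incubated with compound 30 min at 22° C, then LPC (final 75 μM) added and reacted 90 min at 37° C in Tris pH 8 buffer with CaCl2. Choline released was coupled via alkaline phosphatase, choline oxidase and peroxidase to Amplex Red; resorufin fluorescence read in kinetic mode (ex 485/em 612 nm).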

Row | remaining activity at 10 µM [%] | pIC50 | SMILES
1 | 37 | < 6.00 | O=C1Nc2ccc(-c3ccc(Cl)cc3)cc2C(=O)N2CCN(C(=O)c3ccccn3)CC12 (stereo not shown) [Compound A51, 7-(4-Chlorophenyl)-2-(pyridine-2-carbonyl)-1,3,4,11a-tetrahydro-2H,10H-2,4a,10-triaza-dibenzo[a,d]cycloheptene-5,11-dione]
2 |  | < 6.00 | CC(C)(C)[C@@H](N)C(=O)N1CCN2C(=O)c3cc(-c4ccc(Cl)cc4)ccc3NC(=O)C2C1 (stereo partly drawn) [Compound A53, 2-((R)-2-Amino-3,3-dimethylbutyryl)-7-(4-chloro-phenyl)-1,3,4,11a-tetrahydro-2H,10H-2,4a,10-triazadibenzo[a,d]cycloheptene-5,11-dione]
3 | 84 |  | CC(C)(C)[C@H](O)C(=O)N1CCN2C(=O)c3cc(-c4ccc(Cl)cc4)ccc3NC(=O)[C@@H]2C1 [Compound A54, (S)-7-(4-Chlorophenyl)-2-((S)-2-hydroxy-3,3-di-methyl-1-oxobutyl)-1,3,4,11a-tetrahydro-2H,10H-2,4a,10-triazadibenzo[a,d]cycloheptene-5,11-dione]
4 | 71 |  | CC(C)(C)[C@@H](NC=O)C(=O)N1CCN2C(=O)c3cc(-c4ccc(Cl)cc4)ccc3NC(=O)C2C1 (stereo partly drawn) [Compound A55, N-{(R)-1-[7-(4-Chlorophenyl)-5,11-dioxo-3,4,5,10,11,11a-hexahydro-1H-2,4a,10-triaza-dibenzo[a,d]cycloheptene-2-carbonyl]-2,2-dimethylpropyl}formamide]
5 |  | 6.00 to 7.00 | CC(C)(C)[C@H](O)C(=O)N1CCN2C(=O)c3cc(-c4ccc(Cl)cc4)ccc3NC(=O)[C@H]2C1 [Compound A56, (R)-7-(4-Chlorophenyl)-2-((S)-2-hydroxy-3,3-di-methyl-1-oxobutyl)-1,3,4,11a-tetrahydro-2H,10H-2,4a,10-triazadibenzo[a,d]cycloheptene-5,11-dione]
6 | -27 | < 6.00 | CC(C)(C(=O)N1CCN2C(=O)c3cc(-c4ccc(Cl)cc4F)ccc3NC(=O)C2C1)c1ccccc1 (stereo not shown) [Compound A58, 7-(4-Chloro-2-fluorophenyl)-2-(2-methyl-2-phenyl-propionyl)-1,3,4,11a-tetrahydro-2H,10H-2,4a,10-triazadibenzo[a,d]cycloheptene-5,11-dione]
7 | -9 | < 6.00 | CC(C)[C@H](N)C(=O)N1CCN2C(=O)c3cc(-c4ccc(Cl)cc4F)ccc3NC(=O)C2C1 (stereo partly drawn) [Compound A59, 2-((S)-2-Amino-3-methylbutyryl)-7-(4-chloro-2-fluorophenyl)-1,3,4,11a-tetrahydro-2H,10H-2,4a,10-triazadibenzo[a,d]cycloheptene-5,11-dione]
8 | -27 | 6.00 to 7.00 | CC(C)(C)[C@H](O)C(=O)N1CCN2C(=O)c3cc(-c4ccc(Cl)cc4F)ccc3NC(=O)C2C1 (stereo partly drawn) [Compound A60, 7-(4-Chloro-2-fluorophenyl)-2-((S)-2-hydroxy-3,3-dimethylbutyryl)-1,3,4,11a-tetrahydro-2H,10H-2,4a,10-triazadibenzo[a,d]cycloheptene-5,11-dione]
9 | -11 | < 6.00 | CC(C)(C)[C@H](N)C(=O)N1CCN2C(=O)c3cc(-c4ccc(Cl)cc4F)ccc3NC(=O)C2C1 (stereo partly drawn) [Compound A61, 2-((S)-2-Amino-3,3-dimethylbutyryl)-7-(4-chloro-2-fluorophenyl)-1,3,4,11a-tetrahydro-2H,10H-2,4a,10-triazadibenzo[a,d]cycloheptene-5,11-dione]
10 | 27 | < 6.00 | CC(C)[C@H](N)C(=O)N1CCN2C(=O)c3cc(-c4ccc(Cl)cc4F)ccc3NC(=O)[C@@H]2C1 [Compound A62, (S)-2-((S)-2-Amino-3-methylbutyryl)-7-(4-chloro-2-fluorophenyl)-1,3,4,11a-tetrahydro-2H,10H-2,4a,10-triazadibenzo[a,d]cycloheptene-5,11-dione]
11 | 67 | < 6.00 | CC(C)[C@H](N)C(=O)N1CCN2C(=O)c3cc(-c4ccc(Cl)cc4F)ccc3NC(=O)[C@H]2C1 [Compound A63, (R)-2-((S)-2-Amino-3-methylbutyryl)-7-(4-chloro-2-fluorophenyl)-1,3,4,11a-tetrahydro-2H,10H-2,4a,10-triazadibenzo[a,d]cycloheptene-5,11-dione]
12 | 31 | < 6.00 | CC(C)(C)[C@H](O)C(=O)N1CCN2C(=O)c3cc(-c4ccc(Cl)cc4F)ccc3NC(=O)[C@@H]2C1 [Compound A64, (S)-7-(4-Chloro-2-fluorophenyl)-2-((S)-2-hydroxy-3,3-dimethylbutyryl)-1,3,4,11a-tetrahydro-2H,10H-2,4a,10-triazadibenzo[a,d]cycloheptene-5,11-dione]
13 | 48.5 | < 6.00 | CC(C)(C)[C@H](N)C(=O)N1CCN2C(=O)c3cc(-c4ccc(Cl)cc4F)ccc3NC(=O)[C@H]2C1 [Compound A65, (R)-2-((S)-2-Amino-3,3-dimethylbutyryl)-7-(4-chloro-2-fluorophenyl)-1,3,4,11a-tetrahydro-2H,10H-2,4a,10-triazadibenzo[a,d]cycloheptene-5,11-dione]
14 | 9.5 | 6.00 to 7.00 | CC(C)(C)[C@H](N)C(=O)N1CCN2C(=O)c3cc(-c4ccc(Cl)cc4F)ccc3NC(=O)[C@@H]2C1 [Compound A66, (S)-2-((S)-2-Amino-3,3-dimethylbutyryl)-7-(4-chloro-2-fluorophenyl)-1,3,4,11a-tetrahydro-2H,10H-2,4a,10-triazadibenzo[a,d]cycloheptene-5,11-dione]
15 | 19 | < 6.00 | Cn1cncc1C(=O)N1CCN2C(=O)c3cc(-c4ccc(Cl)cc4F)ccc3NC(=O)C2C1 (stereo not shown) [Compound A67, 7-(4-Chloro-2-fluorophenyl)-2-(3-methyl-3H-imidazole-4-carbonyl)-1,3,4,11a-tetrahydro-2H,10H-2,4a,10-triazadibenzo[a,d]cycloheptene-5,11-dione]
16 | -18 | 6.00 to 7.00 | CC1(C)SCN[C@@H]1C(=O)N1CCN2C(=O)c3cc(-c4ccc(Cl)cc4F)ccc3NC(=O)C2C1 (stereo partly drawn) [Compound A68, 7-(4-Chloro-2-fluorophenyl)-2-((R)-5,5-dimethyl-thiazolidine-4-carbonyl)-1,3,4,11a-tetrahydro-2H,10H-2,4a,10-triazadibenzo[a,d]cycloheptene-5,11-dione]
17 | 58 |  | O=C1Nc2ccc(-c3ccc(Cl)cc3F)cc2C(=O)N2CCN(C(=O)[C@H]3NCC[C@@H]3O)CC12 (stereo partly drawn) [Compound A69, 7-(4-Chloro-2-fluorophenyl)-2-((2S,3S)-3-hydroxy-pyrrolidine-2-carbonyl)-1,3,4,11a-tetrahydro-2H,10H-2,4a,10-triazadibenzo[a,d]cycloheptene-5,11-dione]
18 | 28 | < 6.00 | O=C1Nc2ccc(-c3ccc(Cl)cc3F)cc2C(=O)N2CCN(C(=O)[C@@H]3C[C@@H](O)CN3)CC12 (stereo partly drawn) [Compound A70, 7-(4-Chloro-2-fluorophenyl)-2-((2S,4R)-4-hydroxy-pyrrolidine-2-carbonyl)-1,3,4,11a-tetrahydro-2H,10H-2,4a,10-triazadibenzo[a,d]cycloheptene-5,11-dione]
19 | 7 | < 6.00 | O=C1Nc2ccc(-c3ccc(Cl)cc3)cc2C(=O)N2CCN(C(=O)C3CSC(c4ccncc4)N3)CC12 (stereo not shown) [Compound A71, 7-(4-Chlorophenyl)-2-(2-pyridin-4-ylthiazolidine-4-carbonyl)-1,3,4,11a-tetrahydro-2H,10H-2,4a,10-triazadibenzo[a,d]cycloheptene-5,11-dione]
20 | 70 | < 6.00 | O=C1Nc2ccc(-c3ccc(Cl)cc3)cc2C(=O)N2CCN(C(=O)c3c(C(F)(F)F)nc4ccccn34)CC12 (stereo not shown) [Compound A72, 7-(4-Chlorophenyl)-2-(2-trifluoromethylimidazo[1,2-a]pyridine-3-carbonyl)-1,3,4,11a-tetrahydro-2H,10H-2,4a,10-triazadibenzo[a,d]cycloheptene-5,11-dione]
21 | 78 |  | Cc1nc(C)c(C(=O)N2CCN3C(=O)c4cc(-c5ccc(Cl)cc5)ccc4NC(=O)C3C2)s1 (stereo not shown) [Compound A73, 7-(4-Chlorophenyl)-2-(2,4-dimethylthiazole-5-carbonyl)-1,3,4,11a-tetrahydro-2H,10H-2,4a,10-triazadibenzo[a,d]cycloheptene-5,11-dione]
22 | -2 | < 6.00 | CC(C)[C@H](O)C(=O)N1CCN2C(=O)c3cc(-c4ccc(Cl)cc4)ccc3NC(=O)C2C1 (stereo partly drawn) [Compound A74, 7-(4-Chlorophenyl)-2-((S)-2-hydroxy-3-methyl-butyryl)-1,3,4,11a-tetrahydro-2H,10H-2,4a,10-triaza-dibenzo[a,d]cycloheptene-5,11-dione]
23 | 55 |  | O=C1Nc2ccc(-c3ccc(Cl)cc3)cc2C(=O)N2CCN(C(=O)c3cnc[nH]3)CC12 (stereo not shown) [Compound A75, 7-(4-Chlorophenyl)-2-(3H-imidazole-4-carbonyl)-1,3,4,11a-tetrahydro-2H,10H-2,4a,10-triaza-dibenzo[a,d]cycloheptene-5,11-dione]
24 | 41 | < 6.00 | O=C1Nc2ccc(-c3ccc(Cl)cc3)cc2C(=O)N2CCN(C(=O)c3csc(-c4cccnc4)n3)CC12 (stereo not shown) [Compound A76, 7-(4-Chlorophenyl)-2-(2-pyridin-3-ylthiazole-4-carbonyl)-1,3,4,11a-tetrahydro-2H,10H-2,4a,10-triazadibenzo[a,d]cycloheptene-5,11-dione]
25 | 11 | < 6.00 | CC(C)[C@@H](O)C(=O)N1CCN2C(=O)c3cc(-c4ccc(Cl)cc4F)ccc3NC(=O)C2C1 (stereo partly drawn) [Compound A77, 7-(4-Chloro-2-fluorophenyl)-2-((R)-2-hydroxy-3-methylbutyryl)-1,3,4,11a-tetrahydro-2H,10H-2,4a,10-triazadibenzo[a,d]cycloheptene-5,11-dione]
